From patent EP0388245A1, “Agent resistant to AIDS virus” (TERUMO KABUSHIKI KAISHA, priority 1989, dated 1990)

How the values were obtained:
[1] = system: HTLV-IIIb (one kind of HIV); test: Test for activity to inhibit hyperplasia of HIV: suppression of cytopathic effect (CPE), live cells counted by trypan blue; format: cell-based, human immunodeficiency virus (HIV); settings: for MT-4/HIV (live cells): HTLV-IIIb infected MT-4 cells, MOI 0.02, 4 days
Method: (§1) A test for the activity to inhibit hyperplasia of HIV was conducted in accordance with the method proposed by Harada et al [Science, 229, 563-5663 (1985)]. Testing conditions: Cell: […] (HTLV-I-carrying cell line) Virus: THLV-IIIb (one kind of HIV); HTLV-IIIb was prepared from the supernatant of the culture broth of MOLT-4/HIV, a HIV-producing cell. The potency of the virus was 1 x 10⁶ TCID 50/ml. Culture medium: RPMI-1640 (containing 10% bovine fetal serum, 100 IV/penicilin, and 100 µg/ml streptomycin) Culture conditions: In each of the wells of a 24-well culture tray, […] cells (6.6 x 10⁵/ml, 0.3 ml) and HTLV-II Ib ([…], 0.2 ml) were placed [multiplicity of infection (MOI = 0.02)] and cultured for 1 hour. After adsorption of virus, Compound A diluted with culture medium (0.5 ml) was added to a total volume of 1.0 ml and cultured at 37°C for 4 days. Cells not infected by HTLV-IIIb dilution aqueous solution and cells not treated with Compound A were used as controls.
(§2) Virally infected cells and uninfected cells were cultured for 4 days. After the culture, the live cells were counted by the trypan blue tinting method. The property of cytopathic effect suppression was evaluated by comparison of the number of live cells in the culture broths of virally infected cells and uninfected cells both obtained in the absence of Compound A.

[2] = system: MT-4; test: Toxicity to uninfected MT-4 cells, live cell count by trypan blue after 4 days culture; format: cell-based; settings: for MT-4 (live cells) / Toxicity (% control): uninfected MT-4 cells; for MT-4 (live cells): 4 days
Method: as §1, §2

[3] = system: Reverse transcriptase originating in avain myeloblastic virum; test: Test for activity to inhibit reverse transcriptase ([³H] thymidine triphosphate incorporation); format: biochemical; parameters: Radio activity #1 / Radio activity #2: unit not given here; settings: for % control: inhibition of reverse transcriptase
Method: This test was carried out by the method described below.
This test solution was prepared by dissolving Compound A in a concentration of 5 mg/ml in dimethyl sulfoxide and diluting the resultant solution with distilled water.
Fifty (50) µl of the measuring solution and 50 µl of the test solution were mixed and left reacting at 37°C for one hour. The reaction mixture was cooled with ice to stop the reaction. Then 50 µl of […] by a disk of DEAE cellulose paper 2.4 cm in diameter. The wet paper was washed three times with an aqueous 5% […] (with 12 molecules of crystal water) and once each with distilled water and ethanol. The radioactivity was determined with a liquid scintillation counter.

K₇PW₁₀Ti₂O₄₀·6H₂O [Compound A]
activity to control CPE ([1]; 25 to 100 ug/ml, MT-4/HIV): excelled in activity to control CPE
MT-4/HIV (live cells) ([1]; Compound A 25 µg/ml): 10.0 x 10⁵ cells/ml
MT-4/HIV (live cells) ([1]; Compound A 50 µg/ml): 9.8 x 10⁵ cells/ml
MT-4/HIV (live cells) ([1]; Compound A 100 µg/ml): 8.5 x 10⁵ cells/ml
MT-4/HIV (live cells) ([1]; Compound A 200 µg/ml): 4.8 x 10⁵ cells/ml
MT-4/HIV (live cells) ([1]; Compound A 400 µg/ml): 4.7 x 10⁵ cells/ml
% CPE Control ([1]; MT-4/HIV, Compound A 25 µg/ml): 90%
% CPE Control ([1]; MT-4/HIV, Compound A 50 µg/ml): 88%
% CPE Control ([1]; MT-4/HIV, Compound A 100 µg/ml): 71%
% CPE Control ([1]; MT-4/HIV, Compound A 200 µg/ml): 25%
% CPE Control ([1]; MT-4/HIV, Compound A 400 µg/ml): 47%
toxicity ([2]; 25 to 100 ug/ml, MT-4): only inconspicuous toxicity
MT-4 (live cells) ([2]; Compound A 25 µg/ml): 11.8 x 10⁵ cells/ml
MT-4 (live cells) ([2]; Compound A 50 µg/ml): 9.8 x 10⁵ cells/ml
MT-4 (live cells) ([2]; Compound A 100 µg/ml): 10.1 x 10⁵ cells/ml
MT-4 (live cells) ([2]; Compound A 200 µg/ml): 8.5 x 10⁵ cells/ml
MT-4 (live cells) ([2]; Compound A 400 µg/ml): 6.0 x 10⁵ cells/ml
Toxicity (% control) ([2]; Compound A 25 µg/ml): 0 % control
Toxicity (% control) ([2]; Compound A 50 µg/ml): 1 % control
Toxicity (% control) ([2]; Compound A 100 µg/ml): 0 % control
Toxicity (% control) ([2]; Compound A 200 µg/ml): 21 % control
Toxicity (% control) ([2]; Compound A 400 µg/ml): 44 % control
Average value (CPM) ([3]; Concentration 12,500 µg/ml): 3906.0 CPM
Radio activity #1 ([3]; Concentration 12,500 µg/ml): 3666
Radio activity #2 ([3]; Concentration 12,500 µg/ml): 4146
% control ([3]; Concentration 12,500 µg/ml): 50.8%
Average value (CPM) ([3]; Concentration 25,000 µg/ml): 3878.0 CPM
Radio activity #1 ([3]; Concentration 25,000 µg/ml): 3143
Radio activity #2 ([3]; Concentration 25,000 µg/ml): 4613
% control ([3]; Concentration 25,000 µg/ml): 51.2%
Average value (CPM) ([3]; Concentration 50,000 µg/ml): 2450.5 CPM
Radio activity #1 ([3]; Concentration 50,000 µg/ml): 1828
Radio activity #2 ([3]; Concentration 50,000 µg/ml): 3079
% control ([3]; Concentration 50,000 µg/ml): 71.1%
Average value (CPM) ([3]; Concentration 100,000 µg/ml): 1391.0 CPM
Radio activity #1 ([3]; Concentration 100,000 µg/ml): 1231
Radio activity #2 ([3]; Concentration 100,000 µg/ml): 1391
% control ([3]; Concentration 100,000 µg/ml): 86.0%
Average value (CPM) ([3]; Concentration 200,000 µg/ml): 967.0 CPM
Radio activity #1 ([3]; Concentration 200,000 µg/ml): 970
Radio activity #2 ([3]; Concentration 200,000 µg/ml): 930
% control ([3]; Concentration 200,000 µg/ml): 92.0%
activity to inhibit reverse transcriptase ([3]; summary in words of Table 2): manifested an activity to inhibit reverse transcriptase even in a small application rate
